Drawing on US20250282728A1, “NITROGEN COMPRISING HETEROCYCLIC DERIVATIVES FOR THE TREATMENT OF DISORDERS ASSOCIATED WITH GPR55 RECEPTOR” (Cerevance, Inc., priority 2022, published 2025), this text covers EC50 for 24 compounds.

The term EC50 denotes the concentration that produces a half-maximal response.

A value given as a limit tells only on which side of the number the result lay.

For one assay, the target named is T1, human GPR55 (Homo sapiens, UniProt Q9Y2T6).
T1 construct: expressed in transfected cells; host or cells: HEK293 (human embryonic kidney) cells
T1 sequence (Q9Y2T6 whole entry): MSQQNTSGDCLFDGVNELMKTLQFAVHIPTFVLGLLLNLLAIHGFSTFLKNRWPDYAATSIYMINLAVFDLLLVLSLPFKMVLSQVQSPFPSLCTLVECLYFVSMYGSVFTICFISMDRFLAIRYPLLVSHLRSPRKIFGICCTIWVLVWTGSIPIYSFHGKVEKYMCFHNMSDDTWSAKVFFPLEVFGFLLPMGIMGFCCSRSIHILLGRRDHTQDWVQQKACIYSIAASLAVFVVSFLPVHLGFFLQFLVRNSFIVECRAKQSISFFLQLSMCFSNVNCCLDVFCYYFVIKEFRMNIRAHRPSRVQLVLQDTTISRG
Kind of assay: Ca2+ mobilization assay (FLIPR, Calcium5 dye), human GPR55. As to conditions: HEK293 cells co-expressing PK-tagged human GPR55 and EA-tagged beta-arrestin; intracellular calcium increase. It is filed as cell-based. How it is done:
(§1) This cell-based assay measures the ability of compounds to activate the GPR55 receptor by measuring changes in intracellular calcium levels. HEK293 (human embryonic kidney) cells co-expressing recombinant ProLink (PK) tagged human or rat GPR55 and Enzyme Acceptor (EA) tagged beta-arrestin were seeded into PDL-coated, black-walled clear-bottom 384 well plates in assay buffer (25 mM HEPES, HBSS, 1 mM Probenicid, 0.1% BSA, pH 7.4) containing Calcium5 dye (Molecular Devices). Cells were incubated in suspension with the Calcium5 dye for 1 hour at 37° C., 5% CO2. Dilution series of the compounds in assay buffer were added to the cells in duplicate wells and compound-mediated real-time increases in intracellular calcium concentration were recorded as increased fluorescence using the Molecular Devices FLIPR instrument. Kinetic traces were reduced to a numerical value by subtracting the minimum response from the maximum response.
Background: A change in cytosolic calcium serves as a functional read-out for many receptors and channels.

The next assay deals with T2, rat GPR55 (Rattus norvegicus, UniProt F1MAK4).
T2 construct: expressed in transfected cells; host or cells: HEK293 (human embryonic kidney) cells
T2 sequence (F1MAK4 1-319): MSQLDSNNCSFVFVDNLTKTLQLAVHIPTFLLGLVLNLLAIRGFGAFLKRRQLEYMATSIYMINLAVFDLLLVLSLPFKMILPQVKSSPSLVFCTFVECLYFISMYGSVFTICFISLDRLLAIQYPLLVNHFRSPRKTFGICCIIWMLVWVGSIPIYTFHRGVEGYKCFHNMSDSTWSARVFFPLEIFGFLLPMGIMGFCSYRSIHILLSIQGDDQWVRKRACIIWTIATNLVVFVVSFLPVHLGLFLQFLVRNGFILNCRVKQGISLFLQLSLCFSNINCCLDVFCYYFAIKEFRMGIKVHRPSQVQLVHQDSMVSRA
Kind of assay: Ca2+ mobilization assay (FLIPR, Calcium5 dye), rat GPR55. As to conditions: HEK293 cells co-expressing PK-tagged rat GPR55 and EA-tagged beta-arrestin; intracellular calcium increase. The assay is classed as cell-based. The procedure:
as §1

On to `Cc1cncc(-c2ccc(NC(C)c3ccc(Cl)cc3)nc2)c1` (single isomer, unassigned) [Example 46a, N-(1-(4-chlorophenyl)ethyl)-5′-methyl-[3,3′-bipyridin]-6-amine], for which the figures for the EC50 at human GPR55 and at rat GPR55 were at most 1000 nM and at most 200 nM, respectively.

On to `C[C@@H](Nc1ccc(-c2ccc3c(c2)N(C)C(=O)C3(F)F)cn1)c1ccc(F)cc1` [Example 79, (R)-3,3-difluoro-6-(6-((1-(4-fluorophenyl)ethyl)amino)pyridin-3-yl)-1-methylindolin-2-one], for which the concentration for a half-maximal effect (EC50) on human GPR55 and at rat GPR55 was at most 5000 nM each time.

Consider `C=Cc1cncc(-c2ccc(N[C@H](C)c3ccc(F)cc3)nc2)c1` [Example 20, (R)-N-(1-(4-fluorophenyl)ethyl)-5′-vinyl-[3,3′-bipyridin]-6-amine], for which the EC50 on human GPR55 and on rat GPR55 was at most 50 nM in each case.

Consider `C[C@@H](Nc1ncc(-c2cncc(C=C(F)F)c2)nn1)c1ccc(F)cc1` [Example 40, (R)-6-(5-(2,2-difluorovinyl)pyridin-3-yl)-N-(1-(4-fluorophenyl)ethyl)-1,2,4-triazin-3-amine], for which the values for the EC50 at human GPR55 and at rat GPR55 were at most 200 nM and at most 5000 nM, respectively.

With `CS(=O)(=O)c1cncc(-c2ccc(NC3CCc4cc(F)ccc43)nc2)c1` (stereo not drawn) [Example 38, N-(5-fluoro-2,3-dihydro-1H-inden-1-yl)-5′-(methylsulfonyl)-[3,3′-bipyridin]-6-amine], the results for the concentration giving a half-maximal response (EC50) at human GPR55 and at rat GPR55 were at most 1000 nM and at most 50 nM, respectively.

For the compound `CC[S+]([O-])c1cncc(-c2ccc(N[C@H](C)c3ccc(F)cc3)nc2)c1` (stereo partly drawn) [Example 13, 5′-(ethylsulfinyl)-N-((R)-1-(4-fluorophenyl)ethyl)-[3,3′-bipyridin]-6-amine], the EC50 at human GPR55 is at most 200 nM; at rat GPR55 it was at most 5000 nM.

On to `C[C@@H](Nc1cnc(-c2cnnc(C(O)C(F)(F)F)c2)cn1)c1ccc(F)cc1` (stereo partly drawn) [Example 58, 2,2,2-trifluoro-1-(5-(5-(((R)-1-(4-fluorophenyl)ethyl)amino)pyrazin-2-yl)pyridazin-3-yl)ethan-1-ol], for which the EC50 at human GPR55 is at most 50 nM; on rat GPR55, at most 5000 nM.

In the case of `Cc1cncc(-c2ccc(N[C@H](C)c3ccc(F)c(F)c3)nc2)c1` [Example 2, (R)-N-(1-(3,4-difluorophenyl)ethyl)-5′-methyl-[3,3′-bipyridin]-6-amine], the values for the EC50 on human GPR55 and on rat GPR55 were at most 50 nM and at most 5000 nM, respectively.

Consider `C[C@@H](Nc1cnc(-c2cncc(OC(F)F)c2)cn1)c1ccc(F)cc1` [Example 39, (R)-5-(5-(difluoromethoxy)pyridin-3-yl)-N-(1-(4-fluorophenyl)ethyl)pyrazin-2-amine], for which the concentration for a half-maximal effect (EC50) at human GPR55 and at rat GPR55 was at most 1000 nM throughout.

In the case of `Cc1nc(N[C@H](C)c2ccc(F)cc2)ccc1-c1cncc(S(C)(=O)=O)c1` [Example 22, (R)-N-(1-(4-fluorophenyl)ethyl)-2-methyl-5′-(methylsulfonyl)-[3,3′-bipyridin]-6-amine], the results for the EC50 at human GPR55 and at rat GPR55 were at most 200 nM and at most 5000 nM, respectively.

As for `C[C@@H](Nc1ncc(-c2ccc3oc(=O)n(C)c3c2)nn1)c1ccc(F)cc1F` [Example 75, (R)-5-(3-((1-(2,4-difluorophenyl)ethyl)amino)-1,2,4-triazin-6-yl)-3-methylbenzo[d]oxazol-2(3H)-one], the EC50 on human GPR55 and on rat GPR55 was at most 1000 nM in each case.

Regarding `CC(Nc1cc(F)c(-c2cncc(S(C)(=O)=O)c2)cn1)c1ccc(F)cc1` (single isomer, unassigned) [Example 29b, 4-fluoro-N-(1-(4-fluorophenyl)ethyl)-5′-(methylsulfonyl)-[3,3′-bipyridin]-6-amine], the concentration giving a half-maximal response (EC50) on human GPR55 was at most 1000 nM; at rat GPR55, at most 5000 nM.

With `Cc1cc(C(C)Nc2ncc(-c3ccc4oc(=O)n(C)c4c3)nn2)ccc1F` (single isomer, unassigned) [Example 77a, 5-(3-((1-(4-fluoro-3-methylphenyl)ethyl)amino)-1,2,4-triazin-6-yl)-3-methylbenzo[d]oxazol-2(3H)-one], the concentration for a half-maximal effect (EC50) at human GPR55 and on rat GPR55 was at most 1000 nM each time.

Turning to `C[C@@H](Nc1ccc(-c2cncc(Cl)c2)cn1)c1ccc(F)cc1` [Example 9, (R)-5′-chloro-N-(1-(4-fluorophenyl)ethyl)-[3,3′-bipyridin]-6-amine], the EC50 at human GPR55 is at most 200 nM; on rat GPR55, at most 50 nM.

As to `CNCc1cncc(-c2cnc(N[C@H](C)c3ccc(F)cc3)cn2)c1` [Example 37, (R)-N-(1-(4-fluorophenyl)ethyl)-5-(5-(methylamino)methylpyridin-3-yl)pyrazin-2-amine], the EC50 on human GPR55 was at most 200 nM; on rat GPR55, at most 50 nM.

For `C[C@@H](Nc1ncc(-c2ccc3oc(=O)n(C)c3c2)cn1)c1ccc(F)cc1` [Example 63, (R)-5-(2-((1-(4-fluorophenyl)ethyl)amino)pyrimidin-5-yl)-3-methylbenzo[d]oxazol-2(3H)-one], the EC50 on human GPR55 and at rat GPR55 was at most 1000 nM each time.

Turning to `C[C@@H](Nc1ccc(-c2cncc([S+](C)[O-])c2)cn1)c1ccc(F)cc1` (stereo partly drawn) [Example 14, N-((R)-1-(4-fluorophenyl)ethyl)-5′-(methylsulfinyl)-[3,3′-bipyridin]-6-amine], the EC50 was at most 200 nM on human GPR55 and at most 5000 nM on rat GPR55.

On to `CCc1cncc(-c2ccc(N[C@H](C)c3ccccc3)nc2)c1` [Example 49, (R)-5′-ethyl-N-(1-phenylethyl)-[3,3′-bipyridin]-6-amine], for which the EC50 is at most 50 nM on human GPR55 and at most 1000 nM on rat GPR55.

As to `CSCn1c(=O)oc2ccc(-c3cnc(N[C@H](C)c4ccc(F)cc4)nn3)cc21` [Example 70, (R)-5-(3-((1-(4-fluorophenyl)ethyl)amino)-1,2,4-triazin-6-yl)-3-((methylthio)methyl)benzo[d]oxazol-2(3H)-one], the EC50 on human GPR55 and on rat GPR55 was at most 200 nM in each case.

As for `C[C@@H](Nc1cnc(-c2cncc(OCC(F)(F)F)c2)cn1)c1ccc(F)cc1` [Example 42, (R)-N-(1-(4-fluorophenyl)ethyl)-5-(5-(2,2,2-trifluoroethoxy)pyridin-3-yl)pyrazin-2-amine], the concentration for a half-maximal effect (EC50) on human GPR55 was at most 200 nM; at rat GPR55, at most 1000 nM.

Regarding `C[C@@H](Nc1cnc(-c2cncc(S(C)(=O)=O)c2)cn1)c1ccc(F)cc1` [Example 18, (R)-N-(1-(4-fluorophenyl)ethyl)-5-(5-(methylsulfonyl)pyridin-3-yl)pyrazin-2-amine], the EC50 at human GPR55 and at rat GPR55 was at most 50 nM each time.

As for `Cc1cnc(C)c(-c2ccc(N[C@H](C)c3ccc(F)cc3)nc2)c1` [Example 10, (R)-N-(1-(4-fluorophenyl)ethyl)-2′,5′-dimethyl-[3,3′-bipyridin]-6-amine], the EC50 at human GPR55 and on rat GPR55 was at most 1000 nM each time.

Take `C[C@@H](Nc1cnc(-c2cnnc(CC(F)(F)F)c2)cn1)c1ccc(F)cc1` [Example 57, (R)-N-(1-(4-fluorophenyl)ethyl)-5-(6-(2,2,2-trifluoroethyl)pyridazin-4-yl)pyrazin-2-amine]: the half-maximal effective concentration (EC50) on human GPR55 was at most 50 nM; at rat GPR55, at most 5000 nM.

On to `C[C@@H](Nc1ncc(-c2ccc3oc(=O)[nH]c3c2)nn1)c1ccc(F)cc1` [Example 69, (R)-5-(3-((1-(4-fluorophenyl)ethyl)amino)-1,2,4-triazin-6-yl)benzo[d]oxazol-2(3H)-one], for which the EC50 at human GPR55 and on rat GPR55 was at most 1000 nM throughout.
